Laboratory results reported in PMC5301048, “Selection and early clinical evaluation of the brain‐penetrant 11β‐hydroxysteroid dehydrogenase type 1 (11β‐HSD1) inhibitor UE2343 (Xanamem™)” (British Journal of Pharmacology, 2017).

What was measured:
[1] = Pharmacokinetics in dog (i.v. and p.o.); format: in vivo; details: for bioavailability: p.o. 5 mg·kg^−1 vs i.v. 1 mg·kg^−1, mean ± SD
Procedure: Pharmacokinetic studies were carried out at Charles River, UK. For both i.v. and p.o. administration, compounds were prepared in 0.9% saline containing 2% DMSO (v^.v^‐1) and 38% PEG400 (v^.v^‐1). Solutions were passed through 0.22 μm filters prior to administration. Three Beagle dogs each received a single i.v. injection of compound 4 at a dose level of 1 mg·kg^−1. Following a washout period of 1 week, each animal received a single p.o. dose of compound 4 at a dose level of 5 mg·kg^−1.
After a washout period of 6 weeks, the same three dogs each received a single i.v. injection of compound 7 at a dose level of 1 mg·kg^−1. Following a washout period of 1 week, each animal received a single p.o. dose of compound 7 at a dose level of 5 mg·kg^−1.
Plasma samples were obtained up to 24 h post dose administration, and the concentration of each test item in plasma was determined using LC–MS/MS. Pharmacokinetic parameters were derived by non‐compartmental analysis using WinNonLin pharmacokinetic software.

[2] = Plasma protein binding, dog plasma; format: in vitro ADME; details: mean ± SD [n]
[3] = tested on: CYP450 enzymes; test: Time-dependent cytochrome P450 inhibition; format: in vitro ADME, human; details: 30 min pre-incubation ± NADPH; in words
Procedure: Testing was performed by Cyprotex Discovery Limited, Cheshire, UK. Six test compound concentrations (0.4, 1, 4, 10, 40 and 100 μM; final DMSO concentration 0.25%, final microsome concentration 0.25 mg·mL^−1) were either pre‐incubated for 30 min in the absence and presence of NADPH or underwent a 0 min pre‐incubation with human liver microsomes. At the end of the pre‐incubation period, the probe substrate for each cytochrome P450 (CYP450) isoform (30 μM) and NADPH (1 mM) were then added (final DMSO concentration 0.3%), and the samples were incubated for 5 min at 37°C. Probe substrates were as follows: 1A2 – phenacetin, 2C9 – diclofenac, 2C19 – mephenytoin, 2D6 – dextromethorphan, 3A4 – midazolam and testosterone. Samples were subjected to LC–MS/MS analysis to determine metabolite concentrations. A decrease in the formation of the metabolite compared with vehicle control was used to calculate an IC50 value (test compound concentration which produces 50% inhibition) for each experimental condition.

[4] = Multiple ascending dose study, pharmacokinetics; format: in vivo; details: human; for AUC0–12h / Ae(0–12h) (%) / Ae(0–12h), amount excreted in urine / Oral clearance: mean (CV%); for estimated maximal CSF concentration / estimated mean CSF nadir at steady state (Cmin): calculated from plasma levels and CSF:plasma ratio; for Tmax / Cmax / half-life: plasma, oral
Procedure: A double‐blind, randomized, placebo‐controlled multiple ascending dose study was carried out at Linear Clinical Research Ltd, Nedlands, Australia. Each cohort consisted of eight healthy male subjects. Each subject received UE2343 or placebo twice daily (b.i.d ) (12 hourly) in the fed state for 9 days (Day 1 to Day 9) and once on the morning of Day 10 (19 doses in total). Dose cohorts were 10, 20 and 35 mg. Dose escalation and selection was dependent upon satisfactory review of the blinded safety (up to Day 17 ± 2) and plasma pharmacokinetics (up to Day 12) data from the preceding cohort. Safety, pharmacokinetic and pharmacodynamic assessments were made at pre‐determined time‐points during each part of the study.
Laboratory evaluation of clinical safety parameters was carried out using standard validated methods. Measurement of plasma pharmacodynamic markers [adrenocorticotropic hormone (ACTH), cortisol, 4‐androstenedione, testosterone and dehydroepiandrosterone sulphate (DHEA‐s)] was carried out using commercially available kits. Each method was fully validated prior to analysis. Urinary steroid metabolites were measured according to established methods (Boonen et al., 2013). UE2343 levels in plasma, urine and CSF was determined by LC–MS/MS using fully validated methods.
The data and statistical analysis comply with the recommendations on experimental design and analysis in pharmacology (Curtis et al., 2015). Levels of probability, P < 0.05 were deemed to constitute the threshold for statistical significance. Pharmacokinetic parameters, except Tmax (time of maximum observed drug concentration), are given as mean ± coefficient of variation (CV%). Tmax is given as median ± range. For each of the pharmacodynamic parameters [ACTH, cortisol, adrenal androgens, tetrahydrocortisols (THFs)/tetrahydrocortisone (THE) ratio], the maximum % change from baseline for each subject was subjected to ANOVA. For selected data, an additional covariate factor for the baseline was also included in the ANOVA/analysis of covariance (ANCOVA) model. Associated P‐values <0.05 for each comparison have been presented.

clearance ([1]; Beagle, plasma, iv, i.v. 1 mg·kg^−1, mean ± SD): 4.68 ± 1.12 mL/min/kg
half-life ([1]; Beagle, plasma, mean ± SD): 2.79 ± 0.84 h
Tmax ([1]; Beagle, plasma, oral, 5 mg·kg^−1): 1 h
bioavailability ([1]; Beagle, plasma, oral): > 100%
Cmax ([1]; Beagle, plasma, po, p.o. 5 mg·kg^−1, mean ± SD): 4590 ± 546 ng/mL
bioavailability ([1]; Beagle, plasma, po): 170 ± 40%
oral exposure relative to compound 7 ([1]; p.o., in words): greater than threefold higher
Plasma protein binding (% unbound), dog [2]: 44 ± 0 [1] % unbound
time‐dependent inhibition of CYP450 enzymes [3]: No time‐dependent inhibition
AUC0–12h ([4]; 10 mg b.i.d, Day 1): 207 (79%) ng^.h·mL^−1
AUC0–12h ([4]; 10 mg b.i.d, Day 10): 1917 (66%) ng^.h·mL^−1
Oral clearance ([4]; 10 mg b.i.d, Day 10): 7.24 (60%) L·h^−1
estimated maximal CSF concentration ([4]; 10 mg b.i.d): 20 ng/mL
estimated mean CSF nadir at steady state (Cmin) ([4]; 10 mg b.i.d): 13 ng/mL
AUC0–12h ([4]; 20 mg b.i.d, Day 1): 623 (69%) ng^.h·mL^−1
AUC0–12h ([4]; 20 mg b.i.d, Day 10): 3175 (30%) ng^.h·mL^−1
Oral clearance ([4]; 20 mg b.i.d, Day 10): 6.85 (33%) L·h^−1
estimated maximal CSF concentration ([4]; 20 mg b.i.d): 34 ng/mL
estimated mean CSF nadir at steady state (Cmin) ([4]; 20 mg b.i.d): 22 ng/mL
AUC0–12h ([4]; 35 mg b.i.d, Day 1): 1843 (33%) ng^.h·mL^−1
AUC0–12h ([4]; 35 mg b.i.d, Day 10): 7909 (36%) ng^.h·mL^−1
Oral clearance ([4]; 35 mg b.i.d, Day 10): 5.02 (43%) L·h^−1
estimated maximal CSF concentration ([4]; 35 mg b.i.d): 81 ng/mL
estimated mean CSF nadir at steady state (Cmin) ([4]; 35 mg b.i.d): 50 ng/mL
day by which steady state was achieved ([4]; 12 hourly dosing): ≤ 5 days
increase in AUC0–12 from first dose to steady state ([4]; highest dose level (35 mg b.i.d), in words): greater than fourfold
Tmax ([4]; single and multiple dosing, range, read-out: plasma Tmax): 3 to 6 h
Cmax ([4]; male, 10 mg, 10 mg b.i.d, Day 1, mean (CV%)): 29.1 ng/mL
Tmax ([4]; male, 10 mg, 10 mg b.i.d, Day 1, median (range), read-out: Tmax): 6 h
Cmax ([4]; male, 10 mg, 10 mg b.i.d, Day 10, mean (CV%)): 207 ng/mL
half-life ([4]; male, 10 mg, 10 mg b.i.d, Day 10, mean (CV%), read-out: t 1/2 (converted)): 13.8 h
Tmax ([4]; male, 10 mg, 10 mg b.i.d, Day 10, median (range), read-out: Tmax): 4 h
Cmax ([4]; male, 20 mg, 20 mg b.i.d, Day 1, mean (CV%)): 89.2 ng/mL
Tmax ([4]; male, 20 mg, 20 mg b.i.d, Day 1, median (range), read-out: Tmax): 4 h
Cmax ([4]; male, 20 mg, 20 mg b.i.d, Day 10, mean (CV%)): 365 ng/mL
half-life ([4]; male, 20 mg, 20 mg b.i.d, Day 10, mean (CV%), read-out: t 1/2 (converted)): 11.2 h
Tmax ([4]; male, 20 mg, 20 mg b.i.d, Day 10, median (range), read-out: Tmax): 3 h
Cmax ([4]; male, 35 mg, 35 mg b.i.d, Day 1, mean (CV%)): 268 ng/mL
Tmax ([4]; male, 35 mg, 35 mg b.i.d, Day 1, median (range), read-out: Tmax): 4 h
Cmax ([4]; male, 35 mg, 35 mg b.i.d, Day 10, mean (CV%)): 892 ng/mL
half-life ([4]; male, 35 mg, 35 mg b.i.d, Day 10, mean (CV%), read-out: t 1/2 (converted)): 9.99 h
Tmax ([4]; male, 35 mg, 35 mg b.i.d, Day 10, median (range), read-out: Tmax): 4 h
half-life ([4]; male, 35 mg, multiple doses 10, 20 and 35 mg every 12 h, range across doses, read-out: terminal t 1/2): 10 to 14 h
Tmax ([4]; male, multiple doses, range across doses, read-out: median time to peak concentration following each dose): 4 to 6 h
SMILES: O=C(c1csc(-c2cn[nH]c2)c1)N1C2CCC1CC(O)(c1ncccn1)C2 (stereo not drawn) [compound 4]
Ae(0–12h) (%) ([4]; 10 mg b.i.d, Day 1): 0.35 (50%)
Ae(0–12h), amount excreted in urine ([4]; 10 mg b.i.d, Day 1): 34.6 (50%) μg
Ae(0–12h) (%) ([4]; 10 mg b.i.d, Day 10): 4.08 (46%)
Ae(0–12h), amount excreted in urine ([4]; 10 mg b.i.d, Day 10): 408 (46%) μg
Ae(0–12h) (%) ([4]; 20 mg b.i.d, Day 1): 0.54 (92%)
Ae(0–12h), amount excreted in urine ([4]; 20 mg b.i.d, Day 1): 107 (92%) μg
Ae(0–12h) (%) ([4]; 20 mg b.i.d, Day 10): 3.22 (38%)
Ae(0–12h), amount excreted in urine ([4]; 20 mg b.i.d, Day 10): 644 (38%) μg
Ae(0–12h) (%) ([4]; 35 mg b.i.d, Day 1): 1.03 (46%)
Ae(0–12h), amount excreted in urine ([4]; 35 mg b.i.d, Day 1): 362 (46%) μg
Ae(0–12h) (%) ([4]; 35 mg b.i.d, Day 10): 3.84 (29%)
Ae(0–12h), amount excreted in urine ([4]; 35 mg b.i.d, Day 10): 1345 (29%) μg
fraction excreted in urine in the dosing interval (% Ae) ([4]; at steady state (Day 10)): approximately 4%
